Each molecule was assayed against T1, ALK 5 (Homo sapiens, UniProt P36897) (assay: In vitro kinase assay (ALK5 IC50, LanthaScreen Terbium labeled TR-FRET)). Conditions: TGF-β kinase 6 nM, ATP 10 μM, read-out: Enzyme Activity ALK 5 IC50.
T1 sequence (P36897 34-503): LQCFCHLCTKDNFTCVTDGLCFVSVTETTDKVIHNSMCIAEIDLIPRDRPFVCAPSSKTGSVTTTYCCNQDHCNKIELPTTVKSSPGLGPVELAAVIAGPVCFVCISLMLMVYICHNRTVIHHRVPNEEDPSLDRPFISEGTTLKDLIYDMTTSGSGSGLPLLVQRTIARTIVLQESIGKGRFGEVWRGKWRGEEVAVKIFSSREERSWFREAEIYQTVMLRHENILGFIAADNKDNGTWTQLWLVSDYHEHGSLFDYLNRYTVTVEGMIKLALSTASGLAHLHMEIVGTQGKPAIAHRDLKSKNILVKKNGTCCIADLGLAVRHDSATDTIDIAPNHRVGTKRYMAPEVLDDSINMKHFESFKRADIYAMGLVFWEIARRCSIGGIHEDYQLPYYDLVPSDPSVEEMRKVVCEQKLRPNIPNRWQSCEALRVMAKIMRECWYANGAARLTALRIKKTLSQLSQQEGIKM
Assay type: biochemical
Procedure: Compounds of the invention were screened in an in vitro kinase assay against ALK 5, a members of the TGF-β family of Ser/Thr kinases. Standard kinase testing conditions and techniques were employed. IC50 values of compounds against TGF-ß kinase was determined by LanthaScreen™ Terbium Labeled TR-FRET assay. Kinase assays were performed in 1X kinase buffer (# PV6135, Invitrogen, Life Technologies Grand Island, N.Y.) where total reaction volume was 10 μL in low-volume 384-well plates (#4511, Corning). Serially diluted compounds (3-fold) were incubated with TGF-β kinase (6 nM) for 10 min, following which a mixture of ATP (10 μM) (# A1852, Sigma, St-Louis, Mo.) and fluorescent-PolyGT substrate (200 nM); Cat # PV3610, Invitrogen, Life Technologies Grand Island, N.Y.) was added and incubated in dark at room temperature for 1 h. After 1 h, 10 μL stop solution containing Terbium labeled antibody (4 nM; Cat # PV3529, Invitrogen, Life Technologies Grand Island, N.Y.) and EDTA (# E5134, Sigma, St-Louis, Mo.; 20 mM) in TR-FRET dilution buffer (Cat # PV3574, Invitrogen, Life Technologies Grand Island, N.Y.) was added. Readings were taken in a Synergy Neo Plate reader (BioTek, Winooski) at single excitation of 340 nm and Dual emission at 495 nm and 520 nm respectively.
The % activity of test samples was calculated as (Sample-Min)×100/(Max −Min). [Max: DMSO control, complete reaction with enzyme with DMSO and Min: No enzyme with DMSO]. Percent inhibition (100-% activity) was fitted to the “four-parameter logistic model” in XLfit for determination of IC50 values.

Q: With `CN(C)c1[nH]c(=O)c(-c2cc(Cl)ccc2F)cc1Nc1ccncc1C(=O)NC1CC1` [Compound 1.30, 4-((5-(5-chloro-2-fluorophenyl)-2-(dimethylamino)-6-hydroxypyridin-3-yl)amino)-N-cyclopropylnicotinamide] as the molecule, how does the IC50 read?
A: Its IC50 is 2 to 5 µM.

Q: For `CN(C)c1[nH]c(=O)c(-c2cc(Cl)ccc2F)cc1Nc1ccncc1C(=O)NC(C)(C)CO` [Compound 1.31, 4-((5-(5-chloro-2-fluorophenyl)-2-(dimethylamino)-6-hydroxypyridin-3-yl)amino)-N-(1-hydroxy-2-methylpropan-2-yl)nicotinamide], which IC50 is on record?
A: The IC50 was greater than 5 µM.

Q: For `CN(C)c1[nH]c(=O)c(-c2cc(Cl)ccc2F)cc1Nc1ccnc2cc(C(F)(F)F)ccc12` [Compound 1.33, 3-(5-chloro-2-fluorophenyl)-6-(dimethylamino)-5-((7-(trifluoromethyl)quinolin-4-yl)amino)pyridin-2(1H)-one], which IC50 is on record?
A: Its IC50 is 2 to 5 µM.

Q: `CN(C)c1[nH]c(=O)c(-c2cc(Cl)ccc2F)cc1Nc1ccncc1C#N` [Compound 1.34, 4-((5-(5-chloro-2-fluorophenyl)-2-(dimethylamino)-6-oxo-1,6-dihydropyridin-3-yl)amino)nicotinonitrile] was tested. Which IC50 did it give?
A: Its IC50 is greater than 5 µM.

Q: How did the IC50 turn out when `CN(C)c1[nH]c(=O)c(-c2cc(Cl)ccc2F)cc1Nc1ccncc1C1=NCCN1` [Compound 1.35, 3-(5-chloro-2-fluorophenyl)-5-((3-(4,5-dihydro-1H-imidazol-2-yl)pyridin-4-yl)amino)-6-(dimethylamino)pyridin-2(1H)-one] was run?
A: The IC50 was 2 to 5 µM.

Q: How did the IC50 turn out when `CSc1[nH]c(=O)c(-c2cc(Cl)ccc2F)cc1Nc1ccnc2ccncc12` [Compound 1.36, 5-((1,6-naphthyridin-4-yl)amino)-3-(5-chloro-2-fluorophenyl)-6-(methylthio)pyridin-2(1H)-one] was run?
A: The IC50 was no more than 0.5 µM.

Q: With `CN(C)c1[nH]c(=O)c(-c2cc(Cl)ccc2F)cc1Nc1ccnc2ccncc12` [Compound 1.37, 5-((1,6-naphthyridin-4-yl)amino)-3-(5-chloro-2-fluorophenyl)-6-(dimethylamino)pyridin-2(1H)-one] as the molecule, how does the IC50 read?
A: Its IC50 is 2 to 5 µM.

Q: For `CNC(=O)c1cnccc1Nc1cc(-c2cc(Cl)ccc2F)c(=O)[nH]c1N(C)C` [Compound 1.38, 4-((5-(5-chloro-2-fluorophenyl)-2-(dimethylamino)-6-oxo-1,6-dihydropyridin-3-yl)amino)-N-methylnicotinamide], which IC50 is on record?
A: The IC50 was 0.5 to 2 µM.

Q: For `CNC(=O)c1cnccc1Nc1cc(-c2cc(Cl)ccc2F)c(=O)[nH]c1SC` [Compound 1.39, 4-((5-(5-chloro-2-fluorophenyl)-2-(methylthio)-6-oxo-1,6-dihydropyridin-3-yl)amino)-N-methylnicotinamide], which IC50 is on record?
A: The IC50 was no more than 0.5 µM.

Q: Which IC50 does the source give for `CN(C)c1[nH]c(=O)c(-c2cc(Cl)ccc2F)cc1Nc1ccncc1F` [Compound 1.41, 3-(5-chloro-2-fluorophenyl)-6-(dimethylamino)-5-((3-fluoropyridin-4-yl)amino)pyridin-2 (1H)-one] here?
A: The IC50 was 2 to 5 µM.

Q: Which IC50 does the source give for `CC(C)c1[nH]c(=O)c(-c2cc(Cl)ccc2F)cc1Nc1ccnc2ccncc12` [Compound 1.42, 5-((1,6-naphthyridin-4-yl)amino)-3-(5-chloro-2-fluorophenyl)-6-isopropylpyridin-2(1H)-one] here?
A: The IC50 was 2 to 5 µM.

Q: How did the IC50 turn out when `CC(C)c1[nH]c(=O)c(-c2cc(Cl)ccc2F)cc1Nc1ccnc(N)c1` [Compound 1.44, 5-((2-aminopyridin-4-yl)amino)-3-(5-chloro-2-fluorophenyl)-6-isopropylpyridin-2(1H)-one] was run?
A: The IC50 was greater than 5 µM.

Q: How did the IC50 turn out when `CC(C)c1[nH]c(=O)c(-c2cc(Cl)ccc2F)cc1Nc1ccnc(NC(=O)C2CC2)c1` [Compound 1.45, N-(4-((5-(5-chloro-2-fluorophenyl)-2-isopropyl-6-oxo-1,6-dihydropyridin-3-yl)amino)pyridin-2-yl)cyclopropanecarboxamide] was run?
A: Its IC50 is greater than 5 µM.

Q: Which IC50 does the source give for `CC(C)c1[nH]c(=O)c(-c2cc(Cl)ccc2F)cc1Nc1ccnc(NC(=O)CCC(F)(F)F)c1` [Compound 1.46, N-(4-((5-(5-chloro-2-fluorophenyl)-2-isopropyl-6-oxo-1,6-dihydropyridin-3-yl)amino)pyridin-2-yl)-4,4,4-trifluorobutanamide] here?
A: The IC50 was greater than 5 µM.
